The results in this text go back to patent publication US8669249B2, “Poly (ADP-ribose) polymerase (PARP) inhibitors” (Takeda Pharmaceutical Company Limited, priority 2009, dated 2014).

Some results are limits rather than exact numbers.

Assay [1] concerns the target T1, catalytic domain of Human PARP (Homo sapiens, UniProt P09874).
T1 construct: The catalytic domain of Human PARP was cloned and prepared; made in house
Briefly: Biacore surface plasmon resonance affinity assay. The format is binding. The note with it: pKD=-log10 KD, KD in mol/L; Biacore T100, 25° C.; read-out: pKD (converted). In a few lines:
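Human PARP catalytic domain amine-coupled to CM5 chip; compounds run as 2-fold series in HBS-P with 1% DMSO, 0.5 mM TCEP, 5 mM MgCl2.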
For orientation: SPR reads the build-up and loss of mass on a sensor chip optically.

A further assay has as its system Jurkat cell line. In words: PARP cellular chemopotentiation assay (MTS, with/without TMZ). The format is cell-based. The note with it: Chemopotentiation factor: ratio of EC50 values of Jurkat cells co-treated without and with 100 μM TMZ; 96 hours. The essentials: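 Jurkat cells, 10,000/well, pre-cultured 24 h, then treated 96 h with serial compound dilutions (0.5% DMSO) with or without 100 μM TMZ. Viability by MTS conversion (OD490), normalized to DMSO controls; EC50 from curve fits, PF50 = EC50 without TMZ / EC50 with TMZ.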

The target of another assay is T2, PARP (Homo sapiens, UniProt P09874).
T2 construct: purchased Trevigen 4684-096-K HT (kit); 4684-096-01 (PARP enzyme)
In words: PARP ELISA (ELISA-based colorimetric PARP/Apoptosis Assay kit, Trevigen). The conditions noted are these: pIC50=-log10 IC50, IC50 in mol/L; inhibition of PARP catalytic activity. In kind it is biochemical. In a few lines: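 Quenched after 10 min catalysis by aspiration and four PBS/0.1% Triton X-100 washes. Poly(ADP-ribose) detected with mouse anti-PAR monoclonal antibody, goat anti-mouse IgG-HRP and HRP substrate; colorimetric signal proportional to PARP catalytic activity.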
Background: In an ELISA, binding on a coated surface is turned into a signal by an enzyme label.

T1 sequence (P09874 788-1014 limits assumed): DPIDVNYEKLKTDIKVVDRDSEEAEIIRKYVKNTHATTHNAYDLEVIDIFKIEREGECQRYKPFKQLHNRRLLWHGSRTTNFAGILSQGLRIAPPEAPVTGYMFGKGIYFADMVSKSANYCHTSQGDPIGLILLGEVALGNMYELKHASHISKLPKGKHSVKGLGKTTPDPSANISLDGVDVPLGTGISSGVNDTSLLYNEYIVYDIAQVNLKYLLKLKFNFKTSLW
T2 sequence (P09874 whole entry): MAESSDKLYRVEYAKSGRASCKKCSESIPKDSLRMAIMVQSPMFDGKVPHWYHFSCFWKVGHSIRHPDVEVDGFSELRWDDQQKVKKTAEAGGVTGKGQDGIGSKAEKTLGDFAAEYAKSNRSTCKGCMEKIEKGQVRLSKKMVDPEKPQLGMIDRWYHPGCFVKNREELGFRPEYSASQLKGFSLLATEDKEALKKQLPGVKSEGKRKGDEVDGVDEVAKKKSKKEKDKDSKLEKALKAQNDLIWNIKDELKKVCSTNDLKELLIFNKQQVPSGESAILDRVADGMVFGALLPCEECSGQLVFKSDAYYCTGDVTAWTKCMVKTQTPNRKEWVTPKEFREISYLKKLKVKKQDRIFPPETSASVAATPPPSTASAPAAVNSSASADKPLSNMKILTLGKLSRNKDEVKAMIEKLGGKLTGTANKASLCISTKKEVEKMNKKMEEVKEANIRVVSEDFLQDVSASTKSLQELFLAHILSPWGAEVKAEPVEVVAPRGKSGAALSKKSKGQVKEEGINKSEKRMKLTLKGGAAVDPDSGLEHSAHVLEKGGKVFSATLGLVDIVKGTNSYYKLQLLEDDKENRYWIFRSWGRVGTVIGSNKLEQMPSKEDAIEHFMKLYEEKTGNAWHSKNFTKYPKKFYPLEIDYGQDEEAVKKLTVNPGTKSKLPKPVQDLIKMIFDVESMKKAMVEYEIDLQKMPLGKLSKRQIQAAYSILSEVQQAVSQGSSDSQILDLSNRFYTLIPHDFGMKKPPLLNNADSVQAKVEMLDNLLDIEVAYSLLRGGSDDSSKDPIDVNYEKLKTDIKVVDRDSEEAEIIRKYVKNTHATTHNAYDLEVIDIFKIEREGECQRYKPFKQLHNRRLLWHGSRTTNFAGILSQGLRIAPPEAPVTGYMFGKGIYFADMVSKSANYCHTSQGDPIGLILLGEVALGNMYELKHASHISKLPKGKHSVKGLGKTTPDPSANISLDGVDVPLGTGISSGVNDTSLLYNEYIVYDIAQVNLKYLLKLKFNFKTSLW

As for `CCOC(=O)c1ccc(N2CCN(Cc3ccc4c(c3)NC(=O)C(C)O4)CC2)nc1` (centres unmarked) [Compound 237, Ethyl 6-(4-((2-methyl-3-oxo-3,4-dihydro-2H-benzo[b][1,4]oxazin-6-yl)methyl)piperazin-1-yl)nicotinate], the Kd in assay [1] was no more than 10 nM. In addition, the PF50 result in the assay on Jurkat cell line was “≦0.9”. For the same compound, the IC50 (commonly the midpoint of a concentration-inhibition curve) against PARP was no less than 126 nM.
In the case of `COC(=O)c1ccc(N2CCN(Cc3ccc4c(c3)NC(=O)C(C)O4)CC2)cc1` (centres unmarked) [Compound 220, Methyl 4-(4-((2-methyl-3-oxo-3,4-dihydro-2H-benzo[b][1,4]oxazin-6-yl)methyl)piperazin-1-yl)benzoate], the Kd in assay [1] was no more than 10 nM. For the same compound, in the assay with Jurkat cell line, the PF50 is 1.0-1.9. The compound further showed an IC50 against PARP of 39.8 to 100 nM.
The like results for `CC(C)NC(=O)c1ccc(N2CCN(Cc3ccc4c(c3)NC(=O)C(C)O4)CC2)nc1` (centres unmarked) [Compound 238, N-Isopropyl-6-(4-((2-methyl-3-oxo-3,4-dihydro-2H-benzo[b][1,4]oxazin-6-yl)methyl)piperazin-1-yl)nicotinamide] were, in that order, 12.6 to 100 nM, 1.0-1.9 and 39.8 to 100 nM.
Take `COc1cc(CN2CCN(c3ccccc3)CC2)cc2c1OC(C)C(=O)N2` (centres unmarked) [Compound 156, 8-Methoxy-2-methyl-6-((4-phenylpiperazin-1-yl)methyl)-2H-benzo[b][1,4]oxazin-3(4H)-one]: in assay [1], the Kd was no more than 10 nM. Besides, in the assay with Jurkat cell line, the PF50 is listed as 1.0-1.9. Also, on PARP, the IC50 is no less than 126 nM.
As for `CCNC(=O)c1ccc(N2CCN(Cc3cc(F)c4c(c3)NC(=O)C(C)O4)CC2)cc1` (centres unmarked) [Compound 272, N-Ethyl-4-(4-((8-fluoro-2-methyl-3-oxo-3,4-dihydro-2H-benzo[b][1,4]oxazin-6-yl)methyl)piperazin-1-yl)benzamide], the Kd in assay [1] was less than 31.6 nM. Moreover, the PF50 in the assay on Jurkat cell line is listed as 1.0-1.9. At PARP, this compound gave an IC50 of 39.8 to 100 nM.
In the case of `CC1Oc2ccc(CN3CCN(c4ccc(C#N)cc4)CC3)cc2NC1=O` (centres unmarked) [Compound 219, 4-(4-((2-methyl-3-oxo-3,4-dihydro-2H-benzo[b][1,4]oxazin-6-yl)methyl)piperazin-1-yl)benzonitrile], in assay [1], the Kd is no more than 10 nM. Besides, the PF50 result in the assay on Jurkat cell line was “≦0.9”. On PARP, this compound had an IC50 of no more than 31.6 nM.
On to `CNC(=O)c1ccc(N2CCN(Cc3cc(F)c4c(c3)NC(=O)C(C)O4)CC2)cc1` (centres unmarked) [Compound 271, 4-(4-((8-Fluoro-2-methyl-3-oxo-3,4-dihydro-2H-benzo[b][1,4]oxazin-6-yl)methyl)piperazin-1-yl)-N-methylbenzamide], for which, in assay [1], the Kd is no more than 10 nM. Also, the PF50 result with Jurkat cell line is listed as “≦0.9”. Besides, on PARP, the IC50 was 39.8 to 100 nM.
`CC1Oc2ccc(CN3CCN(c4ccc(C#N)cn4)CC3)cc2NC1=O` (centres unmarked) [Compound 231, 6-(4-((2-Methyl-3-oxo-3,4-dihydro-2H-benzo[b][1,4]oxazin-6-yl)methyl)piperazin-1-yl)nicotinonitrile]: the Kd in assay [1] is no more than 10 nM. Besides, in the assay with Jurkat cell line, the PF50 is listed as 1.0-1.9. At PARP, this compound gave an IC50 of no more than 31.6 nM.
For the compound `COC(=O)c1ccc(C2CCN(Cc3ccc4c(c3)NC(=O)C(C)O4)CC2)cc1` (centres unmarked) [Compound 214, Methyl 4-(1-((2-methyl-3-oxo-3,4-dihydro-2H-benzo[b][1,4]oxazin-6-yl)methyl)piperidin-4-yl)benzoate], the Kd in assay [1] was no more than 10 nM. Moreover, the PF50 result in the assay on Jurkat cell line is given as “≦0.9”. In addition, the half-inhibitory concentration (IC50) on PARP was 39.8 to 100 nM.
For the compound `CCNC(=O)c1ccc(N2CCN(Cc3ccc4c(c3)NC(=O)C(C)O4)CC2)nc1` (centres unmarked) [Compound 236, N-Ethyl-6-(4-((2-methyl-3-oxo-3,4-dihydro-2H-benzo[b][1,4]oxazin-6-yl)methyl)piperazin-1-yl)nicotinamide], the Kd in assay [1] was no more than 10 nM. The PF50 result in the assay on Jurkat cell line is listed as “≦0.9”. The compound also gave an IC50 against PARP of no more than 31.6 nM.
Regarding `CCOC(=O)c1ccc(N2CCN(Cc3cc(C)c4c(c3)NC(=O)C(C)O4)CC2)cc1` (centres unmarked) [Compound 255, Ethyl 4-(4-((2,8-dimethyl-3-oxo-3,4-dihydro-2H-benzo[b][1,4]oxazin-6-yl)methyl)piperazin-1-yl)benzoate], the Kd in assay [1] was 12.6 to 100 nM. In addition, the PF50 result in the assay on Jurkat cell line was “≦0.9”. The IC50 against PARP was 39.8 to 100 nM.
Consider `CCOC(=O)c1ccc(N2CCN(Cc3ccc4c(c3)NC(=O)C(C)O4)CC2)cc1` (centres unmarked) [Compound 217, Ethyl 4-(4-((2-methyl-3-oxo-3,4-dihydro-2H-benzo[b][1,4]oxazin-6-yl)methyl)piperazin-1-yl)benzoate], for which, in assay [1], the Kd was no more than 10 nM. Also, the PF50 entry in the assay with Jurkat cell line is “≦0.9”. The IC50 against PARP is no less than 126 nM.
Turning to `CC1Oc2c(cc(CN3CCN(c4ccc(C#N)cc4)CC3)cc2C2CC2)NC1=O` (centres unmarked) [Compound 352, 4-(4-((8-Cyclopropyl-2-methyl-3-oxo-3,4-dihydro-2H-benzo[b][1,4]oxazin-6-yl)methyl)piperazin-1-yl)benzonitrile], the PF50 with Jurkat cell line came out at 6.3. The same compound gave an IC50 against PARP of 79.4 nM.
With `CC1Oc2ccc(CC3CCN(c4ccccc4)CC3)cc2NC1=O` (centres unmarked) [Compound 389, 2-Methyl-6-((1-phenylpiperidin-4-yl)methyl)-2H-benzo[b][1,4]oxazin-3(4H)-one], the PF50 with Jurkat cell line worked out at 1.1. At PARP, this compound had an IC50 greater than 200 nM.
In the case of `CCNC(=O)c1ccc(N2CCN(Cc3cc4c(c(OC)c3)OC(C)C(=O)N4)CC2)c(C)c1` (centres unmarked) [Compound 363, N-ethyl-4-(4-((8-methoxy-2-methyl-3-oxo-3,4-dihydro-2H-benzo[b][1,4]oxazin-6-yl)methyl)piperazin-1-yl)-3-methylbenzamide], the PF50 in the assay with Jurkat cell line was 6522. This compound also had an IC50 against PARP of 31.6 nM.
The like results for `CC1Oc2c(Cl)cc(CN3CC=C(c4ccc(Cl)cc4)CC3)cc2NC1=O` (centres unmarked) [Compound 166, 8-Chloro-6-((4-(4-chlorophenyl)-5,6-dihydropyridin-1(2H)-yl)methyl)-2-methyl-2H-benzo[b][1,4]oxazin-3(4H)-one] were, in that order, 1.0-1.9 and no less than 126 nM.
Consider `CCNC(=O)c1ccc(N2CCN(Cc3cc(C)c4c(c3)NC(=O)C(C)O4)CC2)c(Cl)c1` (centres unmarked) [Compound 382, 3-Chloro-4-(4-((2,8-dimethyl-3-oxo-3,4-dihydro-2H-benzo[b][1,4]oxazin-6-yl)methyl)piperazin-1-yl)-N-ethylbenzamide], for which the PF50 with Jurkat cell line worked out at 3.4. The compound also had an IC50 on PARP of 79.4 nM.
On to `COc1cc(CN2CCN(c3ccc(C(=O)NC4CC4)cc3C)CC2)cc2c1OCC(=O)N2` [Compound 375, N-cyclopropyl-4-(4-((8-methoxy-3-oxo-3,4-dihydro-2H-benzo[b][1,4]oxazin-6-yl)methyl)piperazin-1-yl)-3-methylbenzamide], for which, in the assay with Jurkat cell line, the PF50 is greater than 2.0. The compound also showed an IC50 at PARP of 15.8 nM.
For `CNC(=O)c1ccc(N2CCN(Cc3cc4c(c(OC)c3)OC(C)C(=O)N4)CC2)c(F)c1` (centres unmarked) [Compound 365, 3-Fluoro-4-(4-((8-methoxy-2-methyl-3-oxo-3,4-dihydro-2H-benzo[b][1,4]oxazin-6-yl)methyl)piperazin-1-yl)-N-methylbenzamide] the same measures were 1.3 and 31.6 nM.
Turning to `CNC(=O)c1ccc(N2CCN(Cc3cc4c(c(OC(F)F)c3)OC(C)C(=O)N4)CC2)cc1` (centres unmarked) [Compound 403, 4-(4-((8-(Difluoromethoxy)-2-methyl-3-oxo-3,4-dihydro-2H-benzo[b][1,4]oxazin-6-yl)methyl)piperazin-1-yl)-N-methylbenzamide], the PF50 with Jurkat cell line is reported as greater than 2.0. On PARP, this compound had an IC50 of 63.1 nM.
In the case of `CNC(=O)c1ccc(N2CCN(Cc3cc(C)c4c(c3)NC(=O)C(C)O4)CC2)c(C)c1` (centres unmarked) [Compound 384, 4-(4-((2,8-Dimethyl-3-oxo-3,4-dihydro-2H-benzo[b][1,4]oxazin-6-yl)methyl)piperazin-1-yl)-N,3-dimethylbenzamide], the PF50 in the assay with Jurkat cell line is recorded as 8.4. On PARP, the IC50 was 39.8 nM.
In the case of `CNC(=O)c1ccc(N2CCN(Cc3cc4c(c(-c5ccccc5)c3)OC(C)C(=O)N4)CC2)cc1` (centres unmarked) [Compound 350, N-Methyl-4-(4-((2-methyl-3-oxo-8-phenyl-3,4-dihydro-2H-benzo[b][1,4]oxazin-6-yl)methyl)piperazin-1-yl)benzamide], the PF50 in the assay with Jurkat cell line is 2.1. Further, the IC50 on PARP was greater than 200 nM.
Consider `CNC(=O)c1ccc(N2CCN(Cc3cc4c(cc3F)OC(C)C(=O)N4)CC2)cc1` (centres unmarked) [Compound 335, 4-(4-((7-Fluoro-2-methyl-3-oxo-3,4-dihydro-2H-benzo[b][1,4]oxazin-6-yl)methyl)piperazin-1-yl)-N-methylbenzamide], for which the PF50 in the assay with Jurkat cell line is on record as 0.3. Further, on PARP, half-maximal inhibition (IC50) required 63.1 nM.
The like results for `CCNC(=O)c1ccc(N2CCN(Cc3cc4c(c(OC)c3)OC(C)C(=O)N4)CC2)c(F)c1` (centres unmarked) [Compound 360, N-Ethyl-3-fluoro-4-(4-((8-methoxy-2-methyl-3-oxo-3,4-dihydro-2H-benzo[b][1,4]oxazin-6-yl)methyl)piperazin-1-yl)benzamide] were, in that order, 3.1 and 39.8 nM.
Consider `CNC(=O)c1ccc(N2CCN(Cc3cc(Cc4ccccc4)c4c(c3)NC(=O)C(C)O4)CC2)cc1` (centres unmarked) [Compound 353, 4-(4-((8-Benzyl-2-methyl-3-oxo-3,4-dihydro-2H-benzo[b][1,4]oxazin-6-yl)methyl)piperazin-1-yl)-N-methylbenzamide], for which the PF50 with Jurkat cell line is 1.3. Also, the IC50 at PARP is greater than 200 nM.
